Source: ChEMBL document CHEMBL1139567, “Synthesis and biological evaluation of sulfonamidooxazoles and beta-keto sulfones: selective inhibitors of 11beta-hydroxysteroid dehydrogenase type I” (Bioorg Med Chem Lett, 2005)

What was measured:
[1] = target: 11-beta-hydroxysteroid dehydrogenase 1 (Homo sapiens, UniProt P28845); assay: Inhibitory concentration against human 11-beta-hydroxysteroid dehydrogenase 1
[2] = target: T1, 11-beta-hydroxysteroid dehydrogenase type 2 (Homo sapiens, UniProt P80365); assay: Inhibitory concentration against human 11-beta-hydroxysteroid dehydrogenase 2
T1 sequence (P80365 whole entry): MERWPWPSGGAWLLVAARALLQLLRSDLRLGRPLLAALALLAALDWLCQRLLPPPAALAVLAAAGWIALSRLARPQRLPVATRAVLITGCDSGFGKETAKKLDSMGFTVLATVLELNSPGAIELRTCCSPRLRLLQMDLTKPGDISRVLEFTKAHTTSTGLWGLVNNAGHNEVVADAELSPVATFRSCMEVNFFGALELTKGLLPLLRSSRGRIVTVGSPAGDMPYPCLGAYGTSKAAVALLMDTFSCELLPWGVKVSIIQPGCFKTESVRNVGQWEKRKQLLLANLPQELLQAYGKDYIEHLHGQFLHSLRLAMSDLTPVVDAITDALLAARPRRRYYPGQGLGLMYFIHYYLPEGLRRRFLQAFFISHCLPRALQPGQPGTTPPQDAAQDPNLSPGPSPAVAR

11-beta-hydroxysteroid dehydrogenase 1, sequence (P28845 whole entry): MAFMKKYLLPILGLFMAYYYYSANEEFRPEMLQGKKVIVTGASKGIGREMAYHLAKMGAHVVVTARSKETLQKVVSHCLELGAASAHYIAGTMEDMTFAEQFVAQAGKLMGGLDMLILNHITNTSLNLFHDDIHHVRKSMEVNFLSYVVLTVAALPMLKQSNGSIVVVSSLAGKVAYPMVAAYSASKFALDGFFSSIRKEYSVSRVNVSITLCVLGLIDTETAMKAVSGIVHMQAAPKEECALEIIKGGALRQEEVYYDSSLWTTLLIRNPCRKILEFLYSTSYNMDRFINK

Row | IC50 [1] [µM] | IC50 [2] [µM] | Compound
1 | > 100 | – | COC(=O)Cc1c(Cl)cccc1S(=O)(=O)Nc1nc(C)co1
2 | 23 | > 200 | O=S(=O)(Nc1nc(-c2ccccc2)co1)c1ccccc1
3 | 1.5 | > 200 | CCN(CC)C(=O)Cc1csc(NS(=O)(=O)c2cccc(Cl)c2C)n1
4 | 100 | > 200 | CC(=O)N(C)c1ccc(S(=O)(=O)Nc2nc(C)c(C)o2)cc1
5 | 58.7 | – | Cc1coc(NS(=O)(=O)c2cccc(Cl)c2C)n1
6 | > 100 | – | Cc1coc(NS(=O)(=O)c2cccc(Cl)c2CC(=O)O)n1
7 | 17.3 | > 200 | Cc1c(Cl)cccc1S(=O)(=O)Nc1nc(-c2ccccc2)co1
8 | 2.3 | > 200 | O=S(=O)(Nc1nc(-c2ccc(-c3ccccc3)cc2)co1)c1ccccc1
9 | 9 | > 200 | O=S(=O)(Nc1nc(-c2ccc(C(F)(F)F)cc2)co1)c1ccccc1
10 | 48 | > 200 | Cc1c(Cl)cccc1S(=O)(=O)Nc1nc(-c2ccc(C#N)cc2)co1

Row | Compound | IC50 [1] [µM] | IC50 [2] [µM]
11 | O=C(CS(=O)(=O)c1ccccc1)c1ccc(C(F)(F)F)cc1 | 0.19 | > 200
